Literature values as cited in US9393230B2, “Pharmaceutical composition on the basis of phyto-nutrients with increased bioavailability, having anti-tumor activity, and method for producing said composition (alternatives)” (Nordic Labs Limited, priority 2012, dated 2016).

Compound: O=C(O[C@@H]1Cc2c(O)cc(O)cc2O[C@@H]1c1cc(O)c(O)c(O)c1)c1cc(O)c(O)c(O)c1 [epigallo-3-catechin, epigallocatechol-3-gallate]
- solubility in water: water-soluble
